From ChEMBL document CHEMBL4346655, “Synthesis and biological activities of artemisinin-piperazine-dithiocarbamate derivatives” (Eur J Med Chem, 2019) come the findings set out here.

One test deals with L02. Kind of test: Cytotoxicity against human L02 cells incubated for 72 hrs by MTT assay. It counts as cell-based. The note with it: L02, 72 h.
Test [1] concerns SMMC-7721. Kind of test: Cytotoxicity against human SMMC7721 cells incubated for 72 hrs by MTT assay. It counts as functional, cell-based. The settings on record: SMMC-7721, 72 h.
The subject of test [2] is SMMC-7721. Nature of the test: Induction of apoptosis in human SMMC7721 cells assessed as late apoptotic cells at 10 ug/ml incubated for 72 hrs by Annexin V-FITC/PI staining based flow cytometric analysis (reference value: 1.63 to 2.82%). The test is classed as functional.
Test [3] relates to SMMC-7721. Nature of the test: Induction of apoptosis in human SMMC7721 cells assessed as live cells at 50 ug/ml incubated for 72 hrs by Annexin V-FITC/PI staining based flow cytometric analysis (reference value: 94.81 to 96.55%). The test is classed as functional.
For a further test, the system named is RWPE-1. Kind of test: Cytotoxicity against human RWPE1 cells incubated for 72 hrs by MTT assay. The settings on record: RWPE-1, 72 h. The test is classed as cell-based.
Test [4] concerns SMMC-7721. Kind of test: Induction of apoptosis in human SMMC7721 cells assessed as live cells at 10 ug/ml incubated for 72 hrs by Annexin V-FITC/PI staining based flow cytometric analysis (reference value: 94.81 to 96.55%). It counts as functional.
Test [5] concerns SMMC-7721. Nature of the test: Induction of apoptosis in human SMMC7721 cells assessed as live cells at 1 ug/ml incubated for 72 hrs by Annexin V-FITC/PI staining based flow cytometric analysis (reference value: 94.81 to 96.55%). It counts as functional.
The test system of test [6] is SMMC-7721. Kind of test: Induction of apoptosis in human SMMC7721 cells assessed as early apoptotic cells at 10 ug/ml incubated for 72 hrs by Annexin V-FITC/PI staining based flow cytometric analysis (reference value: 1.31 to 1.65%). The test is classed as functional.
Test [7] deals with SMMC-7721. Nature of the test: Induction of apoptosis in human SMMC7721 cells assessed as late apoptotic cells at 50 ug/ml incubated for 72 hrs by Annexin V-FITC/PI staining based flow cytometric analysis (reference value: 1.63 to 2.82%). It counts as functional.
The next test deals with MCF-10A. Nature of the test: Cytotoxicity against human MCF10A cells incubated for 72 hrs by MTT assay. It counts as cell-based.
The subject of test [8] is SMMC-7721. Kind of test: Induction of apoptosis in human SMMC7721 cells assessed as necrotic cells at 10 ug/ml incubated for 72 hrs by Annexin V-FITC/PI staining based flow cytometric analysis (reference value: 0.52 to 0.72%). The test is classed as functional.
The next test concerns MCF7. Kind of test: Cytotoxicity against human MCF7 cells incubated for 72 hrs by MTT assay. The test is classed as functional, cell-based. The note with it: MCF7, 72 h.
For test [9], the system named is SMMC-7721. Nature of the test: Induction of apoptosis in human SMMC7721 cells assessed as early apoptotic cells at 50 ug/ml incubated for 72 hrs by Annexin V-FITC/PI staining based flow cytometric analysis (reference value: 1.31 to 1.65%). It counts as functional.
The subject of another test is HCT-116. Nature of the test: Cytotoxicity against human HCT116 cells incubated for 72 hrs by MTT assay. It counts as functional, cell-based. The settings on record: HCT-116, 72 h.
The subject of test [10] is SMMC-7721. Nature of the test: Induction of apoptosis in human SMMC7721 cells assessed as necrotic cells at 1 ug/ml incubated for 72 hrs by Annexin V-FITC/PI staining based flow cytometric analysis (reference value: 0.52 to 0.72%). The test is classed as functional.
Test [11] concerns SMMC-7721. Nature of the test: Induction of apoptosis in human SMMC7721 cells assessed as necrotic cells at 50 ug/ml incubated for 72 hrs by Annexin V-FITC/PI staining based flow cytometric analysis (reference value: 0.52 to 0.72%). It counts as functional.
A further test deals with DU-145. Nature of the test: Cytotoxicity against human DU145 cells incubated for 72 hrs by MTT assay. It counts as functional, cell-based. The settings on record: DU-145, 72 h.
Another test has as its system CCD-18Co. Nature of the test: Cytotoxicity against human CCD-18Co cells incubated for 72 hrs by MTT assay. It counts as cell-based.
The test system of test [12] is SMMC-7721. Kind of test: Induction of apoptosis in human SMMC7721 cells assessed as late apoptotic cells at 1 ug/ml incubated for 72 hrs by Annexin V-FITC/PI staining based flow cytometric analysis (reference value: 1.63 to 2.82%). It counts as functional.
Test [13] has as its system SMMC-7721. Kind of test: Induction of apoptosis in human SMMC7721 cells assessed as early apoptotic cells at 1 ug/ml incubated for 72 hrs by Annexin V-FITC/PI staining based flow cytometric analysis (reference value: 1.31 to 1.65%). It counts as functional.

Structures are written as SMILES.

`C[C@H]1[C@H](N2CCN(C(=S)SCc3ccccc3)CC2)O[C@@H]2O[C@@]3(C)CC[C@H]4[C@H](C)CC[C@@H]1[C@@]24OO3`: the values for the IC50 in the test on L02 and in the test on SMMC-7721 [1] were 300 nM and 26 nM, respectively.
Take `Cc1ccc(CSC(=S)N2CCN([C@@H]3O[C@@H]4O[C@@]5(C)CC[C@H]6[C@H](C)CC[C@@H]([C@H]3C)[C@@]46OO5)CC2)cc1`: the IC50 in the test with L02 is 230 nM; in the test with SMMC-7721 [1], 10.2 nM.
In the case of `C[C@H]1[C@H](N2CCN(C(=S)SCc3ccc4ccccc4c3)CC2)O[C@@H]2O[C@@]3(C)CC[C@H]4[C@H](C)CC[C@@H]1[C@@]24OO3`, the results for the IC50 in the test with L02 and with SMMC-7721 [1] were 160 nM and 24.3 nM, respectively.
`C[C@H]1[C@H](N2CCN(C(=S)SCc3ccc(Br)cc3)CC2)O[C@@H]2O[C@@]3(C)CC[C@H]4[C@H](C)CC[C@@H]1[C@@]24OO3`: the figures for the IC50 with L02 and in the test with SMMC-7721 [1] were 150 nM and 7 nM, respectively.
For `C[C@H]1[C@H](N2CCN(C(=S)SCc3ccc([N+](=O)[O-])cc3)CC2)O[C@@H]2O[C@@]3(C)CC[C@H]4[C@H](C)CC[C@@H]1[C@@]24OO3`, in that order: 170 nM and 16.7 nM.
Consider `C[C@H]1[C@H](N2CCN(C(=S)SCC(=O)OCc3ccccc3)CC2)O[C@@H]2O[C@@]3(C)CC[C@H]4[C@H](C)CC[C@@H]1[C@@]24OO3`, for which the IC50 in the test on L02 came out at 150 nM; in the test on SMMC-7721 [1] it was 33.2 nM.
For `C[C@H]1[C@H](N2CCN(C(=S)SCc3ccccc3Cl)CC2)O[C@@H]2O[C@@]3(C)CC[C@H]4[C@H](C)CC[C@@H]1[C@@]24OO3`, in that order: 200 nM and 23.7 nM.
Take `CCCCCSC(=S)N1CCN([C@@H]2O[C@@H]3O[C@@]4(C)CC[C@H]5[C@H](C)CC[C@@H]([C@H]2C)[C@@]35OO4)CC1`: the IC50 in the test with L02 turned out to be 180 nM; in the test on SMMC-7721 [1], 37.1 nM.
`C[C@H]1[C@H](N2CCN(C(=S)SCc3ccc(Cl)cc3)CC2)O[C@@H]2O[C@@]3(C)CC[C@H]4[C@H](C)CC[C@@H]1[C@@]24OO3`: the IC50 in the test on L02 came to 170 nM; in the test with SMMC-7721 [1] it was 28.4 nM.
As to `Cc1ccccc1CSC(=S)N1CCN([C@@H]2O[C@@H]3O[C@@]4(C)CC[C@H]5[C@H](C)CC[C@@H]([C@H]2C)[C@@]35OO4)CC1`, the results for the IC50 in the test on L02 and in the test with SMMC-7721 [1] were 250 nM and 11.4 nM, respectively.
On to `C[C@H]1[C@H](N2CCN(C(=S)SCc3ccc(C#N)cc3)CC2)O[C@@H]2O[C@@]3(C)CC[C@H]4[C@H](C)CC[C@@H]1[C@@]24OO3`, for which the Activity with SMMC-7721 [2] is recorded as 12.36 - 14.62%; with SMMC-7721 [3], 28.05 - 29.95%; with SMMC-7721 [4], 50.41 - 53.94%; in the test on SMMC-7721 [5], 61.22 - 63.68%; in the test on SMMC-7721 [6], 30.54 - 31.3%; in the test on SMMC-7721 [7], 21.86 - 24.63%. Also, the Activity in the test on SMMC-7721 [8] is on record as 3.07 - 4.04%; with SMMC-7721 [9] it was 45.82 - 46.69%; in the test on SMMC-7721 [10], 2.2 - 2.98%; in the test on SMMC-7721 [11], 1.5 - 1.77%; with SMMC-7721 [12], 6.72 - 9.36%; in the test with SMMC-7721 [13], 26.43 - 27.05%. Further, the IC50 with RWPE-1 is 10.5 nM; with L02 it was 180 nM; in the test with SMMC-7721 [1], 2.5 nM; in the test with MCF-10A, 22.4 nM; in the test with MCF7 it was 13.5 nM; with HCT-116, 40.2 nM. Further, the IC50 in the test on DU-145 worked out at 6.3 nM; with CCD-18Co, 40.6 nM.
With `CCCCCCCCCCCCCCCCCCSC(=S)N1CCN([C@@H]2O[C@@H]3O[C@@]4(C)CC[C@H]5[C@H](C)CC[C@@H]([C@H]2C)[C@@]35OO4)CC1`, the figures for the IC50 in the test with L02 and in the test with SMMC-7721 [1] were 130 nM and 16 nM, respectively.
Consider `C[C@H]1[C@@H](O)O[C@@H]2O[C@@]3(C)CC[C@H]4[C@H](C)CC[C@@H]1[C@@]24OO3` [ARTENIMOL], for which the figures for the IC50 with L02 and with SMMC-7721 [1] were 360 nM and more than 100 nM, respectively.
With `Nc1ccn([C@@H]2O[C@H](CO)[C@@H](O)[C@@H]2O)c(=O)n1` [CYTARABINE], the IC50 turned out to be 210 nM in the test on L02 and 27.1 nM in the test with SMMC-7721 [1].
In the same order, the values of `CC[C@]1(O)C[C@H]2CN(CCc3c([nH]c4ccccc34)[C@@](C(=O)OC)(c3cc4c(cc3OC)N(C=O)[C@H]3[C@@](O)(C(=O)OC)[C@H](OC(C)=O)[C@]5(CC)C=CCN6CC[C@]43[C@@H]65)C2)C1` [VINCRISTINE] are 60 nM and 10.3 nM.
